Experimental data as given in the NIST ThermoML archive (doi:10.1021/je900922x).

Assays:
[1] = Liquid, Pycnometric method
[2] = molar heat capacity at constant pressure; details: Liquid, metal-bellows calorimeter

COC [dimethyl ether]
Details | mass density, [1] [kg/m3] | molar heat capacity at constant pressure, [2] [J/K/mol]
310 K, 2000 kPa | 643.5 | 123.92
310 K, 3000 kPa | 646 | 122.08
310 K, 4000 kPa | 648 | 121.62
310 K, 5000 kPa | 650.2 | 121.16
320 K, 2000 kPa | 626 | 127.61
320 K, 3000 kPa | 628.7 | 125.77
320 K, 4000 kPa | 631.1 | 124.85
320 K, 5000 kPa | 634.3 | 124.85
330 K, 2000 kPa | 606.5 | 131.3
330 K, 3000 kPa | 609.8 | 128.53
330 K, 4000 kPa | 613.4 | 128.07
330 K, 5000 kPa | 616.5 | 127.15
340 K, 2000 kPa | 585.3 | 137.74
340 K, 3000 kPa | 589.6 | 134.98
340 K, 4000 kPa | 593.6 | 132.22
340 K, 5000 kPa | 597.4 | 129.45
350 K, 3000 kPa | 566.8 | 140.51
350 K, 4000 kPa | 572 | 137.28
350 K, 5000 kPa | 576.7 | 132.68
360 K, 3000 kPa | 540.2 | 153.87
360 K, 4000 kPa | 547.4 | 145.12
360 K, 5000 kPa | 553.5 | 136.36
